{
  "source": "patent US8686224B2",
  "about": "“Plant defense signal peptides” (priority 2005, dated 2014)",
  "key": {"[1]": {"tested_on": "AtPEPR1 and AtPEPR2 transcripts", "assay": "Expression analysis of AtPEPR1 and AtPEPR2 (Northern hybridization, quantitative RT-PCR)", "format": "in vivo, Arabidopsis thaliana", "conditions": "within 30 min", "description": "Expression analysis of AtPEPR1 and AtPEPR2. […] In order to elucidate the role of AtPEPR2 in AtPeps signal transduction, the gene expression patterns were analyzed in comparison with AtPEPR1."}, "[2]": {"tested_on": "PDF1.2 and PR-1 gene expression", "assay": "Spraying of four-week-old soil-grown plants, qRT-PCR of PDF1.2 and PR-1", "format": "in vivo, Arabidopsis thaliana", "excerpt": "[…]1 and […]2 mutants are unable to respond to AtPEP1. To further examine the importance of […]1 and […]2 in AtPep1 signaling, the expression level of WRKY transcription factor genes, WRKY22, WRKY29, WRKY33. WRKY53 and WRKY55, were monitored by qRT-PCR after supplying AtPep1 to wild type Arabidopsis and T-DNA insertional mutants of […]1 and […]2. These WRKY genes were reported to be induced by the fungal PAMP, chitin (Wan et al., Plant Cell 20: 471-481, 2008), and the bacterial PAMPs, […] et al., Cell 125:749-760, 2006). […] In the double mutants, […] […] We also examined the effect of supplying AtPep1 to the double mutants on the expression of the antimicrobial protein genes, defensin (PDF1.2) and pathogenesis related protein (PR-1) […] peptides are known to induced these genes (Huffaker and Ryan, Proc. Natl. Acad. Sci. USA 104: 10732-10736, 2007). Since the expression levels of PDF1.2 and PR-1 gene in Arabidopsis seedlings grown in liquid medium were already high, the method of supplying AtPep1 was changed. Four-week-old Arabidopsis plants grown in soil were sprayed with 1 μM AtPep1 in 0.01% Silwet L-77, and subjected to qRT-PCR analysis after 6 hours."}, "[3]": {"molecular_target": "T1, 180 kD AtPep1-binding protein (AtPep1 receptor, At1g73080) (Arabidopsis thaliana, UniProt Q9SSL9)", "T1 construct": "endogenous in cells", "T1 sequence (Q9SSL9 29-1123)": "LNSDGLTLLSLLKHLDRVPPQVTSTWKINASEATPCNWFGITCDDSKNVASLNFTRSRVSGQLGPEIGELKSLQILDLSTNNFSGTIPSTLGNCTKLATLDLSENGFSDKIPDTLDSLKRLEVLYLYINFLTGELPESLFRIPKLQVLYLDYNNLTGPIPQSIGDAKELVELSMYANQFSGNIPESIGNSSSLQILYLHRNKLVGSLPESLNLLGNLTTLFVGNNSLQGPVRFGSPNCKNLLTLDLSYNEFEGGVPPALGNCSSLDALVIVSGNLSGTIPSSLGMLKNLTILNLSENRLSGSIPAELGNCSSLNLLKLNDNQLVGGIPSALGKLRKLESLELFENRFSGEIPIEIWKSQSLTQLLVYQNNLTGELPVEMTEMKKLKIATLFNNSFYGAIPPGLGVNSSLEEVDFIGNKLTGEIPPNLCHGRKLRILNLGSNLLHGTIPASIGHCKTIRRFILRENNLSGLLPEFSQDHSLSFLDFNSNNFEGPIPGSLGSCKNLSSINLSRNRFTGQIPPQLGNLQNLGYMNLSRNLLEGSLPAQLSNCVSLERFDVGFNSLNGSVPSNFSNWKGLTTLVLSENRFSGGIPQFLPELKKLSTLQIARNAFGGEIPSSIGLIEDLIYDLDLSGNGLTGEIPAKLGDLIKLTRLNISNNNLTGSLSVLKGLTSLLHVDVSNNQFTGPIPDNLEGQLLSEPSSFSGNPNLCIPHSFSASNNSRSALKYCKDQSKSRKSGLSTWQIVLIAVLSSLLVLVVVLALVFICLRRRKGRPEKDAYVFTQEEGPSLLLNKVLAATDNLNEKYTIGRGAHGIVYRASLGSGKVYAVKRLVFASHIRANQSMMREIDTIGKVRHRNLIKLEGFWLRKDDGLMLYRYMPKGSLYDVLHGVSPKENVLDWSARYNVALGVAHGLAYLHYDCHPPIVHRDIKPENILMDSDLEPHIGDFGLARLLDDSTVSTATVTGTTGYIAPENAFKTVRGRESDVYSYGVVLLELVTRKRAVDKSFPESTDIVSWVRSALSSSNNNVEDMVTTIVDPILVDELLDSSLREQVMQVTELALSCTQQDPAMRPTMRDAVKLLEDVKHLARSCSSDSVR", "assay": "Photoaffinity labeling with 125I-azido-Cys-AtPep1, competition", "conditions": "microsomal membranes of wild type and control SALK plants, preincubated with 2.5 nM AtPep1", "description": "Photoaffinity labeling. To 1 mL of cultured cells in darkness was added ^125I-azido-Cys-AtPep1 (0.25 nM final concentration as described above) and the cells were shaken for 10 min on an orbital shaker (160 rpm) at room temperature. The cells were transferred to a 1.5 mL glass tube, centrifuged at 10,000×g and the sedimented cells were dispersed in 1 mL cold MS medium containing 3% sucrose and centrifuged as above. This wash was repeated twice. The cells were resuspended in 1 mL MS medium and irradiated with UV-B for 10 min on ice to photoactivate the azido group to effect the crosslinking. The cells were washed with 1 mL MS medium, centrifuged as above, and resuspended in 400 μL of 5% SDS. The cells were disrupted by boiling for 30 min, and the insoluble debris was removed by centrifugation at 10,000×g. Proteins in the clear supernatant were precipitated by adding 1.25 volumes of methanol/chloroform (vol/vol). […]\nMicrosomal fractions were prepared from one-month-old plants by differential centrifugation as previously described (Scheer and Ryan, Proc. Natl. Acad. Sci. 99:9585-9590, 2002). […] The membranes were incubated for 60 min at approximately 4° C., irradiated with UV-B for 15 min, separated by SDS-PAGE, dried and analyzed by radioautography to identify labeled proteins."}, "[4]": {"conditions": "sprayed 1 μM in 0.01% Silwet L-77, 6 hours, wild type"}},
  "data": [
    {"substance": "H-ATKVKAKQRGKEKVSSGRPGQHN-OH [AtPep1]", "values": [
      {"measurement": "induction of AtPEPR1 and AtPEPR2 transcripts", "setting": "[1]", "result": "strong inducer"},
      {"measurement": "induction of PDF1.2", "setting": "[2]; [4]", "result": 30, "unit": "fold"},
      {"measurement": "induction of PR-1", "setting": "[2]; [4]", "result": 60, "unit": "fold"},
      {"measurement": "induction of PDF1.2 and PR-1 in the double mutants", "setting": "[2]; sprayed 1 μM, 6 hours", "result": "not induced"},
      {"measurement": "photoaffinity labeled proteins after preincubation", "setting": "[3]", "result": "absent"}
    ]}
  ]
}
